Data from publication PMC11784013, “Potassium molybdate blocks APN-dependent coronavirus entry by degrading receptor via PIK3C3-mediated autophagy” (Journal of Virology, 2024).

Experiments:
intestinal organoids = experiment: Cell Counting Kit 8 cytotoxicity assay in intestinal organoids; type: cell-based, porcine; conditions: PM at concentrations less than 30 mM, 24 h
Protocol: Fig 2 PM restricts TGEV and PRCV infection in porcine intestinal organoids. (A) Intestinal organoids cultured in 96-well plate were incubated with different concentrations of PM for 24 h, which was tested by Cell Counting Kit 8. (B and C) The intestinal organoids monolayer was treated with indicated PM and infected with TGEV Miller (0.1 MOI) for 24 h, which was measured by IFA (B), scale bar: 50 µm, RT-qPCR, TCID50, and western blot (C). (D) Apical-out intestinal organoids were treated with indicated PM and infected TGEV Miller (1 MOI) for 48 h, which was determined by RT-qPCR, TCID50, and western blot. (E and F) The intestinal organoids monolayer was treated with different concentrations of PM and infected with PRCV for 24 h, which was determined by IFA (E), scale bar: 50 µm, RT-qPCR, TCID50, and western blot (F). (G) Apical-out intestinal organoids were treated with indicated PM and infected PRCV (1 MOI) for 48 h, which was detected by RT-qPCR, TCID50, and western blot. Results are presented as mean ± SD of data from three independent experiments. **, P ≤ 0.01; ***, P ≤ 0.001.
ST cells or intestinal organoids cultured in a 96-well plate were incubated with different concentrations of PM (0, 0.1, 0.25, 0.5, 1, 2.5, 5, 10, 20, and 30 mM) for 24 h. […] The absorbance of each well was then measured at 450 nm using a microplate reader to determine cell viability.

APN = APN expression in HEK-293T cells (western blot); type: cell-based, human; conditions: for APN level, western blot quantified by Image J, relative to no PM (=1): PM 10 mM
Protocol: Fig. S6. PM degrades human and mouse-derived APN expression. (A and B) HEK-293T cells (A) and […] (B) were treated with PM (10 mM) for 8 h or 16 h respectively, APN expression was measured by western blot. All western blot results were calculated by Image J. All experiments were […]
PM(10mM) - + - + PM(10mM) - + - + […]

BECN1 = BECN1 expression in ST cells (western blot); type: cell-based, porcine; conditions: Fig. S8A, PM 10 mM, PRCV 0.1 MOI, 16 h
Protocol: Fig 7 PM degrades APN expression via activating PIK3C3-mediated autophagy. (A) Graphical representation for autophagy and the targets of different autophagy inhibitors. (B) ST cells were treated with PM (10 mM) in the presence and absence of 3-MA (20 mM), SBI0206965 (20 µM), and 3BDO (30 µM) for 16 h, and the APN expression was detected by western blot. (C) ST cells were treated with PM (10 mM) in the presence and absence of 3-MA (20 mM) for 16 h, and the APN, PIK3C3, ATG14, BECN1, P62, and LC3 were measured by western blot. (D) ST cells were transfected with PIK3C3 siRNA-1, PIK3C3 siRNA-2, PIK3C3 siRNA-3, PIK3C3 siRNA-4, and NC siRNA for 24 h, the PIK3C3 expression was detected by western blot. […] The APN, PIK3C3, ATG14, BECN1, P62, and LC3 were detected by western blot. […] (G) PIK3C3 was detected by western blot in WT ST cells and PIK3C3 KO ST cells. (H) WT ST cells and PIK3C3 KO ST cells were treated with PM (10 mM) for 16 h and then the APN, PIK3C3, ATG14, BECN1, P62, and LC3 were detected by western blot. […] The APN, PIK3C3, P62, and LC3 were detected by western blot. All western blot results were calculated by Image J. All experiments were performed in triplicate.
Fig. S8. […] Then the APN, PIK3C3, ATG14, BECN1, P62, PRCV N and LC3 were detected by western blot (A), and viral titers and PRCV N mRNA level were determined by TCID50 (B) and RT-qPCR (C) . […]

[K+].[K+].[O]=[Mo](=[O])([O-])[O-] [PM, potassium molybdate]
cytotoxicity (Cell Counting Kit 8) (intestinal organoids): did not cause significant cytotoxicity
APN level, western blot quantified by Image J, relative to no PM (=1) (APN; 8 h): 0.42
APN level, western blot quantified by Image J, relative to no PM (=1) (APN; 16 h): 0.23
human APN expression (APN; PM for 8 and 16 h): also decreased human and mouse-derived APN expression
BECN1 level, western blot, relative to WT without PM (=1) (BECN1; PIK3C3 KO ST cells): 0.95
BECN1 level, western blot, relative to WT without PM (=1) (BECN1; WT ST cells): 1.01
